Consider two compounds from patent US6992079B2, “Substituted 11-phenyl-dibenzazepine compounds useful for the treatment or prevention of diseases characterized by abnormal cell proliferation” (President Fellows of Harvard College, priority 1997, dated 2006).

Common to all, as to assay type: cell-based
In assay [1] the test system is A549. Nature of the assay: SRB antiproliferative assay. As to conditions: Homo sapiens. From the text: (§1) The cells were passaged using Trypsin (Gibco).
Background: The SRB assay estimates cell density from bound dye.

Assay [2] concerns L929. The experiment in a line: SRB antiproliferative assay. The conditions noted are these: L929 (Normal mouse), 5% FCS/5 day incubation.
Text: as §1

Assay [3] relates to DU-145. Nature of the assay: SRB antiproliferative assay. The conditions noted are these: Homo sapiens, DU-145 (Prostate), 5% FCS/5 day incubation.
Text: as §1

Assay [4] relates to HTB174. Nature of the assay: SRB antiproliferative assay. As to conditions: Homo sapiens, HTB174 (Lung), 5% FCS/5 day incubation.
Text: as §1

In assay [5] the test system is ACHN. The experiment in a line: SRB antiproliferative assay. As to conditions: Homo sapiens, ACHN (Renal), 5% FCS/5 day incubation.
Text: as §1

The test system of assay [6] is MMRU. The experiment in a line: SRB antiproliferative assay. As to conditions: Homo sapiens.
Text: as §1

For assay [7], the system named is MDA-MB-23. Nature of the assay: SRB antiproliferative assay. As to conditions: Homo sapiens, MDA-MB-23.
Text: as §1

Assay [8] concerns CaSki. Nature of the assay: SRB antiproliferative assay. The conditions noted are these: Homo sapiens, Ca-Ski, CaSki (Cervical), 5% FCS/5 day incubation.
Text: as §1

Assay [9] concerns SK-MEL-28. Nature of the assay: SRB antiproliferative assay. The conditions noted are these: Homo sapiens, SK-MEL-28 (Melanoma), 5% FCS/5 day incubation.
Text: as §1

In assay [10] the test system is HCT-15. The experiment in a line: SRB antiproliferative assay. As to conditions: Homo sapiens, HCT-15 (Colon), 5% FCS/5 day incubation.
Text: as §1

Assay [11] deals with GM. Nature of the assay: SRB antiproliferative assay. As to conditions: GM (Normal human), 5% FCS/5 day incubation.
Text: as §1

Assay [12] has as its system U118MG. Nature of the assay: SRB antiproliferative assay. The conditions noted are these: Homo sapiens, U-118-MG, U118MG (CNS), 5% FCS/5 day incubation.
Text: as §1

In assay [13] the test system is HUVEC. The experiment in a line: SRB antiproliferative assay. The conditions noted are these: HUVEC (Normal human), 5% FCS/5 day incubation.
Text: as §1

Assay [14] relates to HEPG2. The experiment in a line: SRB antiproliferative assay. As to conditions: Homo sapiens, HepG2, HEPG2 (Hepatocel), 5% FCS/5 day incubation.
Text: as §1

The test system of assay [15] is HT29. Nature of the assay: SRB antiproliferative assay. The conditions noted are these: Homo sapiens.
Text: as §1

The subject of assay [16] is MCF7. Nature of the assay: SRB antiproliferative assay. The conditions noted are these: Homo sapiens.
Text: as §1

For assay [17], the system named is HeLa. Nature of the assay: SRB antiproliferative assay. As to conditions: Homo sapiens, HeLa (Cervical), 5% FCS/5 day incubation.
Text: as §1

The target in assay [18] is T1, Gardos channel of erythrocytes (Homo sapiens, UniProt O15554).
T1 construct: endogenous in cells; host or cells: erythrocytes
T1 sequence (O15554 whole entry): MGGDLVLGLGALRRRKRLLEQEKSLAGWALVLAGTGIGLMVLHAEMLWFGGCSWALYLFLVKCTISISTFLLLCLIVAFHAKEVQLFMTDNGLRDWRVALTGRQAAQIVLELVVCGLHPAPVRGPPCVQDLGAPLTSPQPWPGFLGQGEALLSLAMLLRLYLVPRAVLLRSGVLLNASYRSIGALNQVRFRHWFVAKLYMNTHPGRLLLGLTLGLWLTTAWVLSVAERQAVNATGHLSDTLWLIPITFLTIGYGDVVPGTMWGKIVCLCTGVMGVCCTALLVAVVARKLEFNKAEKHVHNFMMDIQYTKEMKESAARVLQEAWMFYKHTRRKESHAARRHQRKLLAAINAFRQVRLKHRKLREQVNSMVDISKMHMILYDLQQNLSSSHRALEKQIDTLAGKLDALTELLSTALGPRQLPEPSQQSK
The experiment in a line: Gardos channel assay.

One may read the IC50 as the midpoint of a concentration-inhibition curve. For the compound `COc1cc([C@@H]2c3cc4c(cc3[C@@H](O[C@@H]3O[C@@H]5CO[C@@H](C)O[C@H]5[C@H](O)[C@H]3O)[C@H]3COC(=O)[C@H]23)OCO4)cc(OC)c1O` [VP-16, Etoposide, reference compound], the 50% inhibitory concentration (IC50) in assay [1] (A549, A549 (Lung), 5% FCS/5 day incubation) is less than 1.25 µM; in assay [1] (A549, A549, 2% FCS/3 days), 2.3 µM; in assay [2], less than 1.25 µM; in assay [3], less than 1.25 µM; in assay [4], less than 1.25 µM; in assay [5], less than 1.25 µM. The IC50 in [6] (MMRU (Melanoma), 5% FCS/5 day incubation) is less than 1.25 µM; in assay [6] (MMRU, 2% FCS/3 days), less than 2.5 µM; in [7] it was less than 1.25 µM; in assay [8], 1.8 µM; in assay [9] it was less than 1.25 µM; in assay [10], 1.3 µM. The IC50 in assay [11] is 1.4 µM; in [12] it was 2.2 µM; in assay [13] it was less than 1.25 µM; in assay [14], less than 1.25 µM; in assay [15] (HT-29, HT29 (Colon), 5% FCS/5 day incubation), less than 1.25 µM; in [15] (HT-29, HT29, 2% FCS/3 days) it was 20 µM. Further, the 50% inhibitory concentration (IC50) was less than 1.25 µM in assay [16] (MCF7, MCF7 (Breast), 5% FCS/5 day incubation); less than 2.5 µM in assay [16] (MCF7, MCF7, 2% FCS/3 days); less than 1.25 µM in assay [17].

Take `CN1Cc2ccccc2C(c2ccccc2Cl)c2ccccc21` (stereo not shown) [Compound 29]: the IC50 in assay [18] lay within 0.414 to 0.433 µM.
